The record followed here is the supplement of paper PMC10307832.

Holding throughout (assay): relative viability (nuclei count vs DMSO), 5 days (fraction); higher = more cells survive
Compound in the test “RAF265 + Foretinib”: Cn1c(Nc2ccc(C(F)(F)F)cc2)nc2cc(Oc3ccnc(-c4ncc(C(F)(F)F)[nH]4)c3)ccc21 [RAF265] + COc1cc2c(Oc3ccc(NC(=O)C4(C(=O)Nc5ccc(F)cc5)CC4)cc3F)ccnc2cc1OCCCN1CCOCC1 [Foretinib] (partner 0.25 µM)
In a few lines:
(§1)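 Relative viability is defined as nuclei in treated wells over nuclei in vehicle wells. Duplicate plates were run and medians reported. Lung cancer cell lines in 1536-well plates were dosed by pin tool one day after seeding, with one drug or with a fixed anchor-drug dose plus five library-drug doses (not always all listed) in √10 steps, and nuclei were counted after 5 days.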

Compound in the test “IPA-3 + OSI-027”: C1=CC=C2C(=C1)C=CC(=C2SSC3=C(C=CC4=CC=CC=C43)O)O [IPA-3] + COc1cccc2cc(-c3nc([C@H]4CC[C@H](C(=O)O)CC4)n4ncnc(N)c34)[nH]c12 [OSI-027] (partner 0.5 µM)
In a few lines: as §1

Compound in the test “IPA-3 + Decitabine”: C1=CC=C2C(=C1)C=CC(=C2SSC3=C(C=CC4=CC=CC=C43)O)O [IPA-3] + Nc1ncn([C@H]2C[C@H](O)[C@@H](CO)O2)c(=O)n1 [Decitabine] (partner 2 µM)
In a few lines:
as §1

Compound in the test “Doramapimod + Decitabine”: Cc1ccc(-n2nc(C(C)(C)C)cc2NC(=O)Nc2ccc(OCCN3CCOCC3)c3ccccc23)cc1 [Doramapimod] + Nc1ncn([C@H]2C[C@H](O)[C@@H](CO)O2)c(=O)n1 [Decitabine] (partner 2 µM)
In a few lines: as §1

With NCI-H1915, the relative viability came to 1.09 with RAF265 + Foretinib (first compound 0.01 µM); 1.05 with RAF265 + Foretinib (first compound 0.03162 µM); 0.869 with RAF265 + Foretinib (first compound 0.1 µM); 0.348 in the test with RAF265 + Foretinib (first compound 0.3162 µM); 0.306 with RAF265 + Foretinib (first compound 1 µM); 0.567 with IPA-3 + OSI-027 (first compound 0.2 µM). The relative viability with IPA-3 + OSI-027 (first compound 0.6325 µM) was 0.564; with IPA-3 + OSI-027 (first compound 2 µM), 0.626; with IPA-3 + OSI-027 (first compound 6.325 µM), 0.582; with IPA-3 + OSI-027 (first compound 20 µM), 0.61; with IPA-3 + Decitabine (first compound 0.2 µM), 0.277; with IPA-3 + Decitabine (first compound 0.6325 µM), 0.279. Further, the relative viability worked out at 0.248 in the test with IPA-3 + Decitabine (first compound 2 µM); 0.262 with IPA-3 + Decitabine (first compound 6.325 µM); 0.245 with IPA-3 + Decitabine (first compound 20 µM); 0.24 with Doramapimod + Decitabine (first compound 0.02 µM); 0.256 in the test with Doramapimod + Decitabine (first compound 0.06325 µM); 0.256 in the test with Doramapimod + Decitabine (first compound 0.2 µM). Besides, the relative viability was 0.261 with Doramapimod + Decitabine (first compound 0.6325 µM) and 0.255 in the test with Doramapimod + Decitabine (first compound 2 µM).

For the cell line NCI-H1944, the relative viability with RAF265 + Foretinib (first compound 0.01 µM) turned out to be 0.939; with RAF265 + Foretinib (first compound 0.03162 µM) it was 0.913; with RAF265 + Foretinib (first compound 0.1 µM), 0.906; in the test with RAF265 + Foretinib (first compound 0.3162 µM) it was 0.762; in the test with RAF265 + Foretinib (first compound 1 µM), 0.461; with IPA-3 + OSI-027 (first compound 0.2 µM) it was 0.454. Also, the relative viability with IPA-3 + OSI-027 (first compound 0.6325 µM) was 0.394; with IPA-3 + OSI-027 (first compound 2 µM) it was 0.396; with IPA-3 + OSI-027 (first compound 6.325 µM), 0.479; in the test with IPA-3 + OSI-027 (first compound 20 µM), 0.444; with IPA-3 + Decitabine (first compound 0.2 µM), 0.468; with IPA-3 + Decitabine (first compound 0.6325 µM), 0.41. Besides, the relative viability with IPA-3 + Decitabine (first compound 2 µM) is 0.456; with IPA-3 + Decitabine (first compound 6.325 µM) it was 0.481; with IPA-3 + Decitabine (first compound 20 µM), 0.412; with Doramapimod + Decitabine (first compound 0.02 µM), 0.459; in the test with Doramapimod + Decitabine (first compound 0.06325 µM) it was 0.491; in the test with Doramapimod + Decitabine (first compound 0.2 µM), 0.447. For the same cell line, the relative viability with Doramapimod + Decitabine (first compound 0.6325 µM) amounted to 0.423; with Doramapimod + Decitabine (first compound 2 µM), 0.414.

In the case of NCI-H1975, the relative viability with RAF265 + Foretinib (first compound 0.01 µM) came to 0.88; with RAF265 + Foretinib (first compound 0.03162 µM), 0.74; with RAF265 + Foretinib (first compound 0.1 µM), 0.639; with RAF265 + Foretinib (first compound 0.3162 µM) it was 0.383; in the test with RAF265 + Foretinib (first compound 1 µM), 0.333; in the test with IPA-3 + OSI-027 (first compound 0.2 µM), 0.936. The relative viability worked out at 0.732 in the test with IPA-3 + OSI-027 (first compound 0.6325 µM); 0.675 in the test with IPA-3 + OSI-027 (first compound 2 µM); 0.762 with IPA-3 + OSI-027 (first compound 6.325 µM); 0.706 in the test with IPA-3 + OSI-027 (first compound 20 µM); 0.472 with IPA-3 + Decitabine (first compound 0.2 µM); 0.368 with IPA-3 + Decitabine (first compound 0.6325 µM). The relative viability with IPA-3 + Decitabine (first compound 2 µM) was found to be 0.357; in the test with IPA-3 + Decitabine (first compound 6.325 µM), 0.398; in the test with IPA-3 + Decitabine (first compound 20 µM), 0.356; with Doramapimod + Decitabine (first compound 0.02 µM), 0.384; with Doramapimod + Decitabine (first compound 0.06325 µM) it was 0.451; with Doramapimod + Decitabine (first compound 0.2 µM) it was 0.335. Moreover, the relative viability was 0.386 with Doramapimod + Decitabine (first compound 0.6325 µM) and 0.301 in the test with Doramapimod + Decitabine (first compound 2 µM).

Regarding NCI-H1993, the relative viability in the test with RAF265 + Foretinib (first compound 0.01 µM) came to 0.86; with RAF265 + Foretinib (first compound 0.03162 µM), 0.729; with RAF265 + Foretinib (first compound 0.1 µM), 0.783; with RAF265 + Foretinib (first compound 0.3162 µM) it was 0.777; with RAF265 + Foretinib (first compound 1 µM), 0.575; with IPA-3 + OSI-027 (first compound 0.2 µM), 0.555. The relative viability in the test with IPA-3 + OSI-027 (first compound 0.6325 µM) came to 0.556; with IPA-3 + OSI-027 (first compound 2 µM), 0.539; with IPA-3 + OSI-027 (first compound 6.325 µM) it was 0.556; in the test with IPA-3 + OSI-027 (first compound 20 µM), 0.504; with IPA-3 + Decitabine (first compound 0.2 µM), 0.611; with IPA-3 + Decitabine (first compound 0.6325 µM), 0.576. The relative viability with IPA-3 + Decitabine (first compound 2 µM) turned out to be 0.643; with IPA-3 + Decitabine (first compound 6.325 µM), 0.547; in the test with IPA-3 + Decitabine (first compound 20 µM), 0.615; in the test with Doramapimod + Decitabine (first compound 0.02 µM), 0.537; with Doramapimod + Decitabine (first compound 0.06325 µM), 0.578; with Doramapimod + Decitabine (first compound 0.2 µM), 0.511. Also, the relative viability is 0.668 in the test with Doramapimod + Decitabine (first compound 0.6325 µM) and 0.53 in the test with Doramapimod + Decitabine (first compound 2 µM).
